Data published in ChEMBL document CHEMBL1201862, “PubChem BioAssay data set” (2004).
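These data come from cells grown in 96-well plates and exposed to compound for 48 hours at five concentrations. Here, GI50 denotes the concentration required for 50% inhibition of growth.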 Calls of active or inactive are those of the source. No stated cut-off is given here; in the data, active = GI50 up to about 1.1 µM and inactive = higher.

Tests used:
Assay in all cases: NCI tumour cell line growth inhibition, 48 h
NCI-H522 = tested on: NCI-H522
LXFL 529 = tested on: LXFL 529
IGROV-1 = tested on: IGROV-1
SK-MEL-28 = tested on: SK-MEL-28
SN12C = tested on: SN12C
SK-MEL-2 = tested on: SK-MEL-2
OVCAR-8 = tested on: OVCAR-8
U-251 = tested on: U-251
LOX IMVI = tested on: LOX IMVI
HT-29 = tested on: HT-29
SW-620 = tested on: SW-620
A498 = tested on: A498
UACC-62 = tested on: UACC-62
SF-295 = tested on: SF-295
OVCAR-3 = tested on: OVCAR-3
HL-60 = tested on: HL-60
UACC-257 = tested on: UACC-257
UO-31 = tested on: UO-31
MCF7 = tested on: MCF7
NCI/ADR-RES = tested on: NCI/ADR-RES

Compound	GI50 (NCI-H522)	GI50 (LXFL 529)	GI50 (IGROV-1)	GI50 (SK-MEL-28)	GI50 (SN12C)	GI50 (SK-MEL-2)	GI50 (OVCAR-8)	GI50 (U-251)	GI50 (LOX IMVI)	GI50 (HT-29)	GI50 (SW-620)	GI50 (A498)	GI50 (UACC-62)	GI50 (SF-295)	GI50 (OVCAR-3)	GI50 (HL-60)	GI50 (UACC-257)	GI50 (UO-31)	GI50 (MCF7)	GI50 (NCI/ADR-RES)
c1c[nH]c(Cc2nc(Cc3c[nH]cn3)c[nH]2)n1	12.2 µM (inactive)	6.7 µM (inactive)	16.5 µM (inactive)	28.2 µM (inactive)	29.6 µM (inactive)	13.7 µM (inactive)	33.5 µM (inactive)	34 µM (inactive)	16.5 µM (inactive)	4.12 µM (inactive)	6.73 µM (inactive)	9.79 µM (inactive)	19.8 µM (inactive)	35.6 µM (inactive)	55.8 µM (inactive)	3.66 µM (inactive)				
COc1ccc(O)c2c(=O)ccccc12	28.8 µM (inactive)	> 100 µM (inactive)	> 100 µM (inactive)	> 100 µM (inactive)	> 100 µM (inactive)	> 100 µM (inactive)	> 100 µM (inactive)	> 100 µM (inactive)	> 100 µM (inactive)	> 100 µM (inactive)	> 100 µM (inactive)	> 100 µM (inactive)	92.3 µM (inactive)	> 100 µM (inactive)	> 100 µM (inactive)	> 100 µM (inactive)	> 100 µM (inactive)	78.2 µM (inactive)		
O=C1CCNC/C1=C\c1ccccc1	11.3 µM (inactive)	16.1 µM (inactive)	29.9 µM (inactive)	17.4 µM (inactive)	34.5 µM (inactive)	54 µM (inactive)	22.2 µM (inactive)	20.5 µM (inactive)	16.8 µM (inactive)	15.6 µM (inactive)	21.8 µM (inactive)	> 100 µM (inactive)	17.1 µM (inactive)	26.9 µM (inactive)	22.9 µM (inactive)	16.3 µM (inactive)	25.8 µM (inactive)	17 µM (inactive)		
O=C1C2Nc3ccccc3SC2C(=O)N1c1ccc(Br)cc1 (stereo not given)	21.7 µM (inactive)	20.7 µM (inactive)	53.1 µM (inactive)	62.2 µM (inactive)	35.9 µM (inactive)	17.7 µM (inactive)	37.4 µM (inactive)		27.9 µM (inactive)	36.1 µM (inactive)	45 µM (inactive)	26 µM (inactive)	20 µM (inactive)	26.6 µM (inactive)	23.7 µM (inactive)	> 10 µM (inactive)	26.5 µM (inactive)	18.4 µM (inactive)		
c1ccc(CN2COc3c(ccc4c5c(ccc34)CN(Cc3ccccc3)CO5)C2)cc1	> 100 µM (inactive)	> 100 µM (inactive)	> 100 µM (inactive)	> 100 µM (inactive)	> 100 µM (inactive)	> 100 µM (inactive)	> 100 µM (inactive)	> 100 µM (inactive)	> 100 µM (inactive)	> 100 µM (inactive)	> 100 µM (inactive)	> 100 µM (inactive)	> 100 µM (inactive)	> 100 µM (inactive)	> 100 µM (inactive)	> 100 µM (inactive)	> 100 µM (inactive)	> 100 µM (inactive)	> 100 µM (inactive)	> 100 µM (inactive)
CC(C)OP(=O)(OC(C)C)/C(Cl)=N/Nc1ccc([N+](=O)[O-])cc1	> 100 µM (inactive)	34.7 µM (inactive)		> 100 µM (inactive)	> 100 µM (inactive)	> 100 µM (inactive)	> 100 µM (inactive)	> 100 µM (inactive)	44.9 µM (inactive)		> 100 µM (inactive)	24 µM (inactive)	44.8 µM (inactive)		> 100 µM (inactive)	43.7 µM (inactive)	> 100 µM (inactive)	> 100 µM (inactive)		
CCN(CC)CC(C(=O)Nc1c(C)cccc1C)/C(C)=N\NC(=S)NN (stereo not given)	> 100 µM (inactive)	> 100 µM (inactive)	> 100 µM (inactive)	> 100 µM (inactive)		> 100 µM (inactive)	> 100 µM (inactive)	> 100 µM (inactive)	> 100 µM (inactive)	> 100 µM (inactive)	> 100 µM (inactive)	> 100 µM (inactive)	> 100 µM (inactive)	> 100 µM (inactive)	> 100 µM (inactive)	> 100 µM (inactive)	> 100 µM (inactive)	> 100 µM (inactive)		
CS/C(=N\c1nccs1)NC(=O)c1cccc(Cl)c1	34.4 µM (inactive)	91 µM (inactive)	> 100 µM (inactive)	> 100 µM (inactive)	79.4 µM (inactive)	> 100 µM (inactive)	> 100 µM (inactive)	72.1 µM (inactive)	83.6 µM (inactive)	> 100 µM (inactive)	> 100 µM (inactive)	81.8 µM (inactive)	> 100 µM (inactive)	77.8 µM (inactive)	75.2 µM (inactive)	56.8 µM (inactive)	> 100 µM (inactive)	62.4 µM (inactive)		
COc1cc2c[n+]3ccc4cc(OC)c(OC)cc4c3cc2cc1O	> 100 µM (inactive)	> 100 µM (inactive)	> 100 µM (inactive)	> 100 µM (inactive)	> 100 µM (inactive)	> 100 µM (inactive)	> 100 µM (inactive)	> 100 µM (inactive)	> 100 µM (inactive)	> 100 µM (inactive)	> 100 µM (inactive)	> 100 µM (inactive)	> 100 µM (inactive)	> 100 µM (inactive)		> 100 µM (inactive)	> 100 µM (inactive)	> 100 µM (inactive)		
CCOC(=O)NC(=O)c1cn(CCCOC(=O)NCCCCCCNC(=O)OCCCn2c(=O)c(C(=O)NC(=O)OCC)cn(C)c2=O)c(=O)n(C)c1=O	> 100 µM (inactive)	> 100 µM (inactive)	> 100 µM (inactive)	> 100 µM (inactive)	> 100 µM (inactive)	> 100 µM (inactive)	> 100 µM (inactive)	61.2 µM (inactive)	> 100 µM (inactive)	> 100 µM (inactive)	> 100 µM (inactive)	> 100 µM (inactive)	> 100 µM (inactive)		> 100 µM (inactive)	> 100 µM (inactive)	> 100 µM (inactive)	> 100 µM (inactive)		
Cc1ccc(NC(=O)CC2Sc3ccccc3NC2=O)c(C)c1 (stereo not given)	11.4 µM (inactive)	24.7 µM (inactive)	23.6 µM (inactive)	20.1 µM (inactive)	38.2 µM (inactive)	4.56 µM (inactive)	18.5 µM (inactive)	14 µM (inactive)	19.6 µM (inactive)		11.4 µM (inactive)	14 µM (inactive)	12.2 µM (inactive)	16.2 µM (inactive)	12.2 µM (inactive)	2.73 µM (inactive)	2.59 µM (inactive)	13 µM (inactive)		
COc1cc([C@@H]2c3cc4c(cc3[C@@H](NC(=O)c3cccc(F)c3)C3COC(=O)[C@@H]32)OCO4)cc(OC)c1O (stereo not given in full)	1.4 µM (inactive)	5.5 µM (inactive)	1.19 µM (inactive)	2.94 µM (inactive)	0.314 µM (active)	4.46 µM (inactive)	1.76 µM (inactive)	0.109 µM (active)	0.698 µM (active)	2.05 µM (inactive)	0.738 µM (active)	1.27 µM (inactive)	0.385 µM (active)	0.412 µM (active)	3.6 µM (inactive)	0.111 µM (active)	7.19 µM (inactive)	2.99 µM (inactive)		
COC(=O)C1(O)c2ccccc2N=C2C1CCN2C (stereo not given)	> 100 µM (inactive)	> 100 µM (inactive)	> 100 µM (inactive)	> 100 µM (inactive)	> 100 µM (inactive)	> 100 µM (inactive)	> 100 µM (inactive)	> 100 µM (inactive)	> 100 µM (inactive)	> 100 µM (inactive)	> 100 µM (inactive)	> 100 µM (inactive)	> 100 µM (inactive)	> 100 µM (inactive)		> 100 µM (inactive)	> 100 µM (inactive)	> 100 µM (inactive)		
Nc1ncnc2c1ncn2C1(CO)OC(CO)C(O)C1O (stereo not given)	> 100 µM (inactive)	> 100 µM (inactive)		> 100 µM (inactive)	> 100 µM (inactive)	> 100 µM (inactive)		> 100 µM (inactive)	> 100 µM (inactive)	> 100 µM (inactive)	> 100 µM (inactive)	> 100 µM (inactive)		> 100 µM (inactive)		> 100 µM (inactive)	> 100 µM (inactive)			
Cc1cc(C(=O)N2CCN(Cc3ccccc3)CC2)c(C)o1	> 100 µM (inactive)	> 100 µM (inactive)	> 100 µM (inactive)	> 100 µM (inactive)	> 100 µM (inactive)		> 100 µM (inactive)	> 100 µM (inactive)	> 100 µM (inactive)	> 100 µM (inactive)	> 100 µM (inactive)	> 100 µM (inactive)	> 100 µM (inactive)	> 100 µM (inactive)	> 100 µM (inactive)	25.4 µM (inactive)	> 100 µM (inactive)	> 100 µM (inactive)		
